Active and inactive are the calls of the source. The calls are words filed in the database; no cut-off is given here.

This assay addresses Cyclin-dependent kinase 2 (Homo sapiens) (UniProt P24941). The assay can be described thus: Binding affinity to human CDK2.

Take `O=c1c(O)c(-c2ccc(O)c(O)c2)oc2c(O[C@@H]3O[C@H](CO)[C@@H](O)[C@H](O)[C@H]3O)c(O)cc(O)c12`: the outcome was Active.
